Assay results as given in PMC3669377, “Purification, Cloning, Characterization and Essential Amino Acid Residues Analysis of a New ι-Carrageenase from Cellulophaga sp. QY3” (PLoS ONE, 2013).

Biological target: T1, CgiA_Ce (Cellulophaga sp. QY3, UniProt M1EU02)
T1 construct: gene cgiA; native secreted enzyme purified from culture supernatant; mature, putative signal peptide M1-S41 removed (precursor 492 residues); monomer
T1 sequence (M1EU02 42-492): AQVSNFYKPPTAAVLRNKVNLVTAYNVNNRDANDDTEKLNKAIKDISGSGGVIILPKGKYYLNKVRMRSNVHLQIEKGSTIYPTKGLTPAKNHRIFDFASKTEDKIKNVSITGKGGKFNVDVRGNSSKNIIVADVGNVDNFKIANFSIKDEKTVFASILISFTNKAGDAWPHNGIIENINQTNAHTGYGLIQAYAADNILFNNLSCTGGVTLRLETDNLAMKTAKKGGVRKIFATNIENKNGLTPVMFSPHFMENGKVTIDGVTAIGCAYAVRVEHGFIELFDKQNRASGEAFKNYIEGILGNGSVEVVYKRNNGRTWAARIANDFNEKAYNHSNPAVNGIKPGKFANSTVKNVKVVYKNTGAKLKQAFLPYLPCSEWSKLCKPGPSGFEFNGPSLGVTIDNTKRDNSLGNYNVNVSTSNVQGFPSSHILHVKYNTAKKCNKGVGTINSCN
Experiment: FACE analysis of hydrolysis products
Type: biochemical
Settings: pH 7.0, 45°C; 10 mg/ml substrate; minimum substrate; products neo-iota-carrabiose and neo-iota-carratetraose

Question: With `O=S(=O)(O)O[C@@H]1[C@H](O[C@H]2O[C@@H]3CO[C@@H]([C@H]3O[C@@H]3O[C@H](CO)[C@H](OS(=O)(=O)O)[C@H](O[C@H]4O[C@@H]5CO[C@@H]([C@H]5O)[C@H]4OS(=O)(=O)O)[C@H]3O)[C@H]2OS(=O)(=O)O)[C@@H](O)[C@H](O[C@@H]2[C@@H]3OC[C@H]2O[C@H](O[C@H]2[C@@H](OS(=O)(=O)O)[C@@H](CO)OC(O)[C@@H]2O)[C@@H]3OS(=O)(=O)O)O[C@@H]1CO` (stereo partly shown) [DP6, neo-ι-carrahexaose] as the compound, how does the “FACE analysis of hydrolysis products” value read?
Answer: Neo-ι-carrahexaose was the shortest chain that can be recognized and cleaved by CgiA_Ce
